Measurements reported in the NIST ThermoML archive (doi:10.1021/je5009679).
Numbers after ± are expanded uncertainties.

Conditions: Liquid; for viscosity: Concentric cylinders viscometry

CCn1cc[n+](C)c1.CO[PH](=O)[O-] [1-ethyl-3-methylimidazolium methyl phosphonate]
101.33 kPa
Conditions	viscosity [mPa·s]
293.15 K	156.4 ± 7.6
303.15 K	89.9 ± 4.3
313.15 K	56.11 ± 2.6
323.15 K	37.41 ± 1.8
333.15 K	26.3 ± 1.2
343.15 K	19.32 ± 0.91
353.15 K	14.71 ± 0.69
363.15 K	11.54 ± 0.54
373.15 K	9.289 ± 0.44

Conditions	mass density [kg/m3]
293.15 K, 101.33 kPa, Vibrating tube method	1198.3 ± 1.1
303.15 K, 101.33 kPa, Vibrating tube method	1191.7 ± 1.1
311.2 K, 10000 kPa, Bellows volumetry	1189.6 ± 1.5
311.2 K, 20000 kPa, Bellows volumetry	1193.3 ± 1.5
311.2 K, 30000 kPa, Bellows volumetry	1197.1 ± 1.5
311.2 K, 40000 kPa, Bellows volumetry	1200.8 ± 1.5
311.2 K, 50000 kPa, Bellows volumetry	1204.4 ± 1.5
311.2 K, 60000 kPa, Bellows volumetry	1207.8 ± 1.5
311.2 K, 70000 kPa, Bellows volumetry	1211.3 ± 1.5
311.2 K, 80000 kPa, Bellows volumetry	1214.6 ± 1.5
311.2 K, 90000 kPa, Bellows volumetry	1217.9 ± 1.5
311.2 K, 100000 kPa, Bellows volumetry	1221 ± 1.5
311.2 K, 110000 kPa, Bellows volumetry	1224.2 ± 1.5
311.2 K, 120000 kPa, Bellows volumetry	1227.2 ± 1.5
311.2 K, 130000 kPa, Bellows volumetry	1230.3 ± 1.5
311.2 K, 140000 kPa, Bellows volumetry	1233.1 ± 1.5
311.2 K, 150000 kPa, Bellows volumetry	1236.1 ± 1.5
311.2 K, 160000 kPa, Bellows volumetry	1238.9 ± 1.5
311.2 K, 170000 kPa, Bellows volumetry	1241.7 ± 1.5
311.2 K, 180000 kPa, Bellows volumetry	1244.5 ± 1.5
311.2 K, 190000 kPa, Bellows volumetry	1247.2 ± 1.5
311.2 K, 200000 kPa, Bellows volumetry	1249.9 ± 1.5
313.15 K, 101.33 kPa, Vibrating tube method	1185.3 ± 1.1
323.15 K, 101.33 kPa, Vibrating tube method	1178.8 ± 1.1
330.9 K, 10000 kPa, Bellows volumetry	1176.8 ± 1.5
330.9 K, 20000 kPa, Bellows volumetry	1180.9 ± 1.5
330.9 K, 30000 kPa, Bellows volumetry	1184.9 ± 1.5
330.9 K, 40000 kPa, Bellows volumetry	1188.8 ± 1.5
330.9 K, 50000 kPa, Bellows volumetry	1192.5 ± 1.5
330.9 K, 60000 kPa, Bellows volumetry	1196.1 ± 1.5
330.9 K, 70000 kPa, Bellows volumetry	1199.8 ± 1.5
330.9 K, 80000 kPa, Bellows volumetry	1203.3 ± 1.5
330.9 K, 90000 kPa, Bellows volumetry	1206.6 ± 1.5
330.9 K, 100000 kPa, Bellows volumetry	1210 ± 1.5
330.9 K, 110000 kPa, Bellows volumetry	1213.3 ± 1.5
330.9 K, 120000 kPa, Bellows volumetry	1216.4 ± 1.5
330.9 K, 130000 kPa, Bellows volumetry	1219.5 ± 1.5
330.9 K, 140000 kPa, Bellows volumetry	1222.5 ± 1.5
330.9 K, 150000 kPa, Bellows volumetry	1225.4 ± 1.5
330.9 K, 160000 kPa, Bellows volumetry	1228.3 ± 1.5
330.9 K, 170000 kPa, Bellows volumetry	1231.2 ± 1.5
330.9 K, 180000 kPa, Bellows volumetry	1234 ± 1.5
330.9 K, 190000 kPa, Bellows volumetry	1236.7 ± 1.5
330.9 K, 200000 kPa, Bellows volumetry	1239.6 ± 1.5
333.15 K, 101.33 kPa, Vibrating tube method	1172.5 ± 1.1
343.15 K, 101.33 kPa, Vibrating tube method	1166.1 ± 1.1
351.3 K, 10000 kPa, Bellows volumetry	1164.2 ± 1.5
351.3 K, 20000 kPa, Bellows volumetry	1168.7 ± 1.5
351.3 K, 30000 kPa, Bellows volumetry	1172.8 ± 1.5
351.3 K, 40000 kPa, Bellows volumetry	1176.9 ± 1.5
351.3 K, 50000 kPa, Bellows volumetry	1180.9 ± 1.5
351.3 K, 60000 kPa, Bellows volumetry	1184.7 ± 1.5
351.3 K, 70000 kPa, Bellows volumetry	1188.4 ± 1.5
351.3 K, 80000 kPa, Bellows volumetry	1192 ± 1.5
351.3 K, 90000 kPa, Bellows volumetry	1195.5 ± 1.5
351.3 K, 100000 kPa, Bellows volumetry	1198.9 ± 1.5
351.3 K, 110000 kPa, Bellows volumetry	1202.1 ± 1.5
351.3 K, 120000 kPa, Bellows volumetry	1205.4 ± 1.5
351.3 K, 130000 kPa, Bellows volumetry	1208.7 ± 1.5
351.3 K, 140000 kPa, Bellows volumetry	1211.8 ± 1.5
351.3 K, 150000 kPa, Bellows volumetry	1214.8 ± 1.5
351.3 K, 160000 kPa, Bellows volumetry	1217.8 ± 1.5
351.3 K, 170000 kPa, Bellows volumetry	1220.8 ± 1.5
351.3 K, 180000 kPa, Bellows volumetry	1223.7 ± 1.5
351.3 K, 190000 kPa, Bellows volumetry	1226.6 ± 1.5
351.3 K, 200000 kPa, Bellows volumetry	1229.5 ± 1.5
353.15 K, 101.33 kPa, Vibrating tube method	1159.9 ± 1.1
363.15 K, 101.33 kPa, Vibrating tube method	1153.8 ± 1.1
371.3 K, 10000 kPa, Bellows volumetry	1152.1 ± 1.5
371.3 K, 20000 kPa, Bellows volumetry	1156.2 ± 1.5
371.3 K, 30000 kPa, Bellows volumetry	1161 ± 1.5
371.3 K, 40000 kPa, Bellows volumetry	1165.2 ± 1.5
371.3 K, 50000 kPa, Bellows volumetry	1169.2 ± 1.5
371.3 K, 60000 kPa, Bellows volumetry	1173.3 ± 1.5
371.3 K, 70000 kPa, Bellows volumetry	1177.2 ± 1.5
371.3 K, 80000 kPa, Bellows volumetry	1180.9 ± 1.5
371.3 K, 90000 kPa, Bellows volumetry	1184.5 ± 1.5
371.3 K, 100000 kPa, Bellows volumetry	1188.2 ± 1.5
371.3 K, 110000 kPa, Bellows volumetry	1191.6 ± 1.5
371.3 K, 120000 kPa, Bellows volumetry	1195 ± 1.5
371.3 K, 130000 kPa, Bellows volumetry	1198.3 ± 1.5
371.3 K, 140000 kPa, Bellows volumetry	1201.6 ± 1.5
371.3 K, 150000 kPa, Bellows volumetry	1204.7 ± 1.5
371.3 K, 160000 kPa, Bellows volumetry	1207.9 ± 1.5
371.3 K, 170000 kPa, Bellows volumetry	1210.9 ± 1.5
371.3 K, 180000 kPa, Bellows volumetry	1213.9 ± 1.5
371.3 K, 190000 kPa, Bellows volumetry	1216.8 ± 1.5
371.3 K, 200000 kPa, Bellows volumetry	1219.8 ± 1.5
373.15 K, 101.33 kPa, Vibrating tube method	1147.6 ± 1.1
391.2 K, 10000 kPa, Bellows volumetry	1140.6 ± 1.5
391.2 K, 20000 kPa, Bellows volumetry	1144.9 ± 1.5
391.2 K, 30000 kPa, Bellows volumetry	1149.5 ± 1.5
391.2 K, 40000 kPa, Bellows volumetry	1154 ± 1.5
391.2 K, 50000 kPa, Bellows volumetry	1158.2 ± 1.5
391.2 K, 60000 kPa, Bellows volumetry	1162.3 ± 1.5
391.2 K, 70000 kPa, Bellows volumetry	1166.4 ± 1.5
391.2 K, 80000 kPa, Bellows volumetry	1170.4 ± 1.5
391.2 K, 90000 kPa, Bellows volumetry	1174.1 ± 1.5
391.2 K, 100000 kPa, Bellows volumetry	1177.9 ± 1.5
391.2 K, 110000 kPa, Bellows volumetry	1181.4 ± 1.5
391.2 K, 120000 kPa, Bellows volumetry	1184.9 ± 1.5
391.2 K, 130000 kPa, Bellows volumetry	1188.3 ± 1.5
391.2 K, 140000 kPa, Bellows volumetry	1191.6 ± 1.5
391.2 K, 150000 kPa, Bellows volumetry	1194.9 ± 1.5
391.2 K, 160000 kPa, Bellows volumetry	1198.1 ± 1.5
391.2 K, 170000 kPa, Bellows volumetry	1201.2 ± 1.5
391.2 K, 180000 kPa, Bellows volumetry	1204.2 ± 1.5
391.2 K, 190000 kPa, Bellows volumetry	1207.2 ± 1.5
391.2 K, 200000 kPa, Bellows volumetry	1210.2 ± 1.5
411.1 K, 10000 kPa, Bellows volumetry	1128.7 ± 1.5
411.1 K, 20000 kPa, Bellows volumetry	1133.3 ± 1.5
411.1 K, 30000 kPa, Bellows volumetry	1138.1 ± 1.5
411.1 K, 40000 kPa, Bellows volumetry	1142.8 ± 1.5
411.1 K, 50000 kPa, Bellows volumetry	1147.3 ± 1.5
411.1 K, 60000 kPa, Bellows volumetry	1151.7 ± 1.5
411.1 K, 70000 kPa, Bellows volumetry	1155.8 ± 1.5
411.1 K, 80000 kPa, Bellows volumetry	1159.9 ± 1.5
411.1 K, 90000 kPa, Bellows volumetry	1163.9 ± 1.5
411.1 K, 100000 kPa, Bellows volumetry	1167.6 ± 1.5
411.1 K, 110000 kPa, Bellows volumetry	1171.3 ± 1.5
411.1 K, 120000 kPa, Bellows volumetry	1174.9 ± 1.5
411.1 K, 130000 kPa, Bellows volumetry	1178.4 ± 1.5
411.1 K, 140000 kPa, Bellows volumetry	1181.8 ± 1.5
411.1 K, 150000 kPa, Bellows volumetry	1185.3 ± 1.5
411.1 K, 160000 kPa, Bellows volumetry	1188.5 ± 1.5
411.1 K, 170000 kPa, Bellows volumetry	1191.7 ± 1.5
411.1 K, 180000 kPa, Bellows volumetry	1194.8 ± 1.5
411.1 K, 190000 kPa, Bellows volumetry	1197.9 ± 1.5
411.1 K, 200000 kPa, Bellows volumetry	1201 ± 1.5
